Source: patent US20150374784A1, “COMPOSITIONS AND METHODS FOR REDUCING GERM CELL DEATH” (Los Angeles Biomedical Research Institute at Harbor-UCLA …, priority 2014, published 2015)
Where “and” joins values, the source holds several entries; their conditions need not be identical. Equal entries are not always repeated.

Legend:
Leydig cells = assay: Leydig cell depletion and testosterone levels in rats; type: in vivo, rat; conditions: for intratesticular testosterone levels / serum testosterone levels: rats, EDS 80 mg/kg, CP 70 mg/kg BW, HN 40 mg/kg BW, with or without EDS pre-treatment
IGF-1 = assay: Plasma IGF-1 in mice bearing metastatic lung melanomas; type: in vivo, mouse; conditions: 14 days; HNG 5 mg/kg/day IP; CP 200 mg/kg IP single injection
STAT3 = STAT3 phosphorylation in testis by western blot; type: in vivo, mouse; conditions: testis homogenates; for STAT3 phosphorylation (phosphorylated STAT3/STAT3) compared with control: treatment alone
Description: (§1) For the HN analog experiments, male mice were divided into seven groups (n=4-5 per group) and received one of the following treatments and sacrificed after 24 hours: 1) vehicle (control); 2) a single intra-peritoneal (IP) injection of HN peptide [HN, 40 mg/Kg body weight (BW)]; 3) a single IP injection of CP (CP, 200 mg/Kg BW); 4) IP injection of CP and HN (CP+HN); 5) a single IP injection of each HN analog (HNG 5 mg/Kg BW, HNG-F6A 5 mg/Kg BW, HN-S7A 40 mg/Kg BW, HN-C8P 40 mg/Kg BW, or HN-L12A 40 mg/Kg BW); 6) IP injection of CP and each HN analog (CP+HNG, HNG-F6A, HN-S7A, HN-C8P, or HN-L12A); and 7) IP injection of CP+HN+HN analog (HN-S7A, HN-C8P, or HN-L12A; to assess whether the analogs has enhancing or inhibitory effect on HN).
(§2) To facilitate testicular fixation by using a whole-body perfusion technique, all animals were injected with heparin (130 IU/100 g BW, IP) 15 min before a lethal injection of sodium pentobarbital (200 mg/kg BW, IP) (Lue Y H, et al., 1999). One testis was removed and weighed after perfusion with saline. Portions of testicular parenchyma were snap frozen in liquid nitrogen, and stored at −80 C for Western blotting. The other testis was fixed by vascular perfusion with Bouin's solution, and processed with routine paraffin embedding for in situ detection of apoptosis.
Western blotting was performed as described previously (Jia Y, et al., 2009). In brief, proteins were denatured and separated by sodium dodecyl sulfate-polyacrylamide gel electrophoresis (SDS-PAGE) system (Invitrogen, Carlsbad, Calif.). After transferring, the Immuno-blot PVDF Membrane (Bio-Rad, Hercules, Calif.) was blocked for 1 h and then probed using anti-STAT3 or anti-pSer727 STAT3 (Cell signaling Technology, Inc., Beverly, Mass.) overnight at 4 C with constant shaking. After washing, membrane was then incubated with an anti-mouse (for STAT3 antibody, Santa Cruz Biotechnology, Santa Cruz, Calif.) or anti-rabbit (for pSer727 STAT3 antibody, Amersham Biosciences, Piscataway, N.J.) IgG-HRP secondary antibody. All antibodies were diluted in blocking buffer. For immunodetection, membrane was incubated with enhanced chemiluminescence solutions per the manufacturer's specifications (Amersham Biosciences, Piscataway, N.J.), and exposed to Hyperfilm ECL (Denville Scientific Inc., Metuchen, N.J.).

male germ cells [1] = type: in vivo, mouse; conditions: for germ cell apoptosis in testicular cross sections (TUNEL) compared to control: 24 hours after IP injection
Description: Young adult mice (12-13 weeks) were randomly divided into 4 groups with 4 or 5 mice per group and received an IP injection: control (Con) (saline), HN (40 mg/Kg BW), CP (200 mg/Kg BW), and the combination of CP+HN. These experiments were repeated four times. In the CP+HN group, mice received an injection of HN followed by an injection of CP about 15 minutes later. Twenty-four hours after injections animals were sacrificed using 5% pentobarbital (200 mg/kg BW) IP injection. Blood was collected and one testis was removed, weighed and frozen in liquid nitrogen. The mouse was next perfused with saline and then subsequently perfuse-fixed with Bouin's solution as previously described and apoptosis was assessed by TUNEL assay (Lue, et al., 2009).
For detection of apoptosis in testicular sections, the paraffin embedded testis tissue was cut into 5 micron sections and stained with the TdT-mediated dUTP nick-end labeling assay (TUNEL Apoptosis Detection Kit, Millipore, Billerica, Mass.) to detect apoptosis of germ cells in the testis (Lue, et al., 2009). Testicular sections assayed by TUNEL were examined under a light microscope and the apoptotic germ cells were blindly and manually counted. The seminiferous tubules in the testis section under the microscope were grouped as stages IX-IV (early-late stages of spermatogenesis) and V-VIII (middle stages of spermatogenesis). Germ cell apoptosis was quantified as the number of seminiferous tubules containing apoptotic spermatogonia, spermatoctyes, round spermatids and spermatozoa per 100 seminiferous tubules (Drumond, et al., 2011).
Statistical analyses of the majority of the data was performed using the Sigma Plot 12 program (Jandel, San Rafael, Calif.). The data were analyzed by using t-tests and one-way ANOVA followed by Student-Newman-Keuls Method. P-values of less than 0.05 (P<0.05) were considered significant. In in vivo experiments when the testicular sections were assessed for apoptosis, a mixed model used the percentage of tubules with apoptosis as the dependent variable. Two different stages (Early or Late Vs Middle) and four treatment groups (Control, HN CP, CP+HN) as well as the interaction term were included in the model as independent variables. Persons who did the experiment were considered as a random effect to accommodate a potential heterogeneous variance in the model. Least Square Means and their differences were computed and tested using the Tukey's adjustment for multiple pair-wise comparisons. A residual analysis was done to check for the model assumptions. All the data analysis was carried out using SAS 9.3 (Cary, N.C. USA).

male germ cells [2] = test system: male germ cells
male germ cells [3] = type: in vivo, mouse
Description: as §1, §2
Detection of apoptotic cells was performed in Bouin's′-fixed, paraffin-embedded testicular sections by the terminal deoxynucleotidyl transferase (TdT)-mediated deoxy-UTP nick end labeling (TUNEL) technique (Sinha Hikim A P, et al., 1997) using an ApopTag-peroxidase kit (Chemicon International, Inc., Temecula, Calif.). Enumeration of the Sertoli cell nuclei with distinct nucleoli and apoptotic germ cell population was quantified at stages I-IV (early stages), stages VII-VIII (middle stages) and stages XI-XII (late stages) of the seminiferous epithelial cycle using an Olympus BH-2 microscope (New Hyde Park, N.Y.). Stages were identified according to the criteria proposed by Russell et al for paraffin sections (Russell L, 1977). The rate of germ cell apoptosis (apoptotic index, AI) was expressed as the number of apoptotic germ cells per Sertoli cells (Sinha Hikim A P, et al., 1997).

B16 (melanoma) = assay: Autophagy induction in B16 (fluorescent microscopy, western blot of LC3-II); type: cell-based, mouse
[4] = EDS 80 mg/kg IP 3 days before, CP 70 mg/kg BW
[5] = rats not pre-treated with EDS, CP 70 mg/kg BW IP, 12 hours

In the case of O=P1(N(CCCl)CCCl)NCCCO1 (stereo not drawn) [CP, cyclophosphamide monohydrate], the intratesticular testosterone levels (Leydig cells) is reported as “had no significant effects”, the serum testosterone levels (Leydig cells) is reported as “had no significant effects” and the “plasma IGF-1 levels” value (IGF-1) is reported as “modestly suppressed IGF-1”. For the same compound, the “STAT3 phosphorylation (phosphorylated STAT3/STAT3) compared with control” value (STAT3) was “suppressed Ser727-phosphorylated STAT3 in testes”, the “germ cell apoptosis in testicular cross sections (TUNEL) compared to control” value (male germ cells [1]; HN 40 mg/Kg, CP 200 mg/Kg) was “significantly increased germ cell apoptosis” and the “germ cell apoptosis, percentage of tubules with apoptotic cells, early-late stages” value (male germ cells [1]; early-late stages of spermatogenesis, 24 hours, CP 200 mg/Kg, HN 40 mg/Kg) was “significantly increased germ cell apoptosis”. For the same compound, the “germ cell apoptosis, percentage of tubules with apoptotic cells, middle stages” value (male germ cells [1]; middle stages (V-VIII), 24 hours, CP 200 mg/Kg, HN 40 mg/Kg) was “significant increase in apoptosis”, the “CP induced germ cell apoptosis with versus without EDS pre-treatment, early and late stages” value (male germ cells [2]; CP 70 mg/kg BW) was “significantly lower in EDS pre-treated rats” and the “germ cell apoptosis at early (I-VI) and late (IX-XIV) stages, EDS pre-treated rats, compared to control” value (male germ cells [2]; [4]) was “did not significantly increased germ cell apoptosis”. For the same compound, the “germ cell apoptosis in middle (VII-VIII) stages, EDS pre-treated rats” value (male germ cells [2]; [4]) was “did not additively increased germ cell apoptosis caused by EDS treatment”, the “germ cell apoptosis at early (I-VI) and late (IX-XIV) stages compared to control” value (male germ cells [2]; [5]) was “significantly increased germ cell apoptosis” and the “germ cell apoptosis in the middle (VII-VIII) stages” value (male germ cells [2]; [5]) was “did not increase apoptosis in the middle (VII-VIII) stages”. The “Apoptotic Index (AI), apoptotic germ cells per Sertoli cell, middle stages” value (male germ cells [3]; stages VII-VIII, 24 hours after single IP, CP 200 mg/Kg, HN, HN-S7A 40 mg/Kg, HNG, HNG-F6A 5 mg/Kg, monohydrate) was 0.25±0.03 and 0.33±0.03.
For “MAPRGFSCLLLLTSEIDLPVKRRA [HN, 24-amino acid mitochondrial derived peptide]”, the “EDS-induced Leydig cell loss” value (Leydig cells; HN administered 3 days after EDS pre-treatment) was “did not reverse the EDS-induced Leydig cell loss”, the intratesticular testosterone levels (Leydig cells) was “had no significant effects” and the serum testosterone levels (Leydig cells) was “had no significant effects”. For the same compound, the autophagy (B16 (melanoma)) was “induces autophagy”, the “STAT3 phosphorylation (phosphorylated STAT3/STAT3) compared with control” value (STAT3) was “did not change STAT3 phosphorylation” and the “CP suppressed STAT3 (Ser727) phosphorylation” value (STAT3; with CP 200 mg/Kg) was “restored CP-induced Ser 727-phosphorylation of STAT3”. The “germ cell apoptosis in testicular cross sections (TUNEL) compared to control” value (male germ cells [1]; HN 40 mg/Kg, CP 200 mg/Kg) was “had no significant effect on germ cell apoptosis”, the “CP-induced germ cell apoptosis” value (male germ cells [1]; HN 40 mg/Kg IP about 15 minutes before CP 200 mg/Kg IP, 24 hours) was “attenuated the CP-induced germ cell apoptosis” and the “germ cell apoptosis at early and late stages in EDS pre-treated rats, addition of HN” value (male germ cells [2]; HN 40 mg/kg BW) was “did not significantly reduced germ cell apoptosis”. The “CP effects at early and late stages in EDS pre-treated animals, addition of HN” value (male germ cells [2]; HN 40 mg/kg BW + CP + EDS) was “did not change the CP effects in EDS pre-treated animals”, the “EDS-induced apoptosis of germ cells, middle stages” value (male germ cells [2]; HN 40 mg/kg BW IP 3 days after EDS) was “significantly reduced the EDS-induced apoptosis of germ cells” and the “increase in apoptosis in CP+EDS group, middle stages” value (male germ cells [2]; concomitant HN 40 mg/kg BW) was “reduced by concomitant HN treatment”. For the same compound, the “apoptosis in CP treated testis, middle (VII-VIII) stages” value (male germ cells [2]; rats not pre-treated with EDS, HN 40 mg/kg BW + CP) was “had no effect on CP treated testis”, the “CP-induced apoptosis at early and late stages” value (male germ cells [2]; rats not pre-treated with EDS, HN 40 mg/kg BW IP + CP 70 mg/kg BW) was “significantly reduced CP-induced apoptosis” and the “spontaneous germ cell apoptosis, peptide alone” value (male germ cells [3]; single IP, 24 hours, no CP) was “did not change the spontaneous germ cell apoptosis”. For the same compound, the “inhibition of (protection against) CP-induced germ cell apoptosis, early+late stages” value (male germ cells [3]; stages I-IV and XI-XII, HN, HN-C8P 40 mg/kg BW, HNG, HNG-F6A 5 mg/kg BW) was ~57% and ~60% and the “effect on CP-induced germ cell apoptosis, middle stages” value (male germ cells [3]; stages VII-VIII, 40 mg/kg BW) was “not in middle stages”.
